Measured values taken from patent US20050136536A1, “Embryonic epithelial cells” (priority 2003, published 2005).

System: cytokeratin 7
Test: differentiation of hES cells on gelatin-coated glass slides, cytokeratin 7 staining
Format: cell-based, human
Settings: 300 nM AM580, serum medium, stained after 6 or 8 days
Procedure: H9 cells (Thomson, J. A., et al., “Embryonic stem cells lines derived from human blastocysts”, Science 282, 1145-1147 (1998)) were grown as described in Spradling, A., et al., “Stem cells find their niche”, Nature 414, 98-104 (2001), the entire contents of which are incorporated herein by reference. C2C12 cells were grown as described in Yaffee, D. & Saxel, O., “Serial passaging and differentiation of myogenic cells isolated from dystrophic mouse muscle”, Nature 270, 725-7 (1977). Specifically, hES cells (H9 clone) were grown on mouse embryo fibroblasts (Cell Essential) in KnockOut Medium (Gibco-BRL, Gaithersburg, Md.), a modified version of Dulbeco's modified Eagle's medium optimized for ES cells (Itskovitz-Eldor, et. al., (2000) Mol. Med. 6, 88-95, the contents of which are incorporated herein by reference). Tissue cover plates were covered with 0.1% gelatin (Sigma). Culture were grown in 5% CO2 and were routinely passaged every 5-6 days after disaggregating with 1 mg/ml collagenase type IV (Gibco-BRL). To induce formation of EBs, hES colonies were digested using either 1 mg/ml collagenase type IV or trypsin/EDTA (0.1%/1 mM) and transferred to petri dishes to allow their aggregation and prevent adherence to the plate. […]

## CC1(C)CCC(C)(C)c2cc(C(=O)Nc3ccc(C(=O)O)cc3)ccc21 [AM580]
  development of cytokeratin 7-positive cells: increases the development of cytokeratin 7-positive cells
